Measured values reported in patent US11969408B2, “Method for improving mitophagy in subjects” (Amazentis SA, priority 2017, dated 2024).

Columns and labels:
Format in all cases: in vivo, human
[1] = Plasma pharmacokinetics after 28 day daily oral dosing (clinical study Part B)
Experimental: Part B: The study was a double-blinded, randomized, multiple ascending dose study in 36 healthy elderly male and female volunteers. Each subject was randomised to receive study product or placebo for 28 days. Part B: Repeated oral dose administration from day 1 to day 28 according to the randomization. The administration took place around 8:00 am with around 200 mL tap water, in a sitting position, and under fasting conditions. Cohort 3 (12 subjects): 1000 mg urolithin A (9 subjects) or placebo (3 subjects) soft gel capsule formulation for 28 days. After multiple dosing: Cmax, tmax, AUC0-24h, t1/2 From the plasma concentration-time data, the following pharmacokinetic parameters will be determined, as data permit using non-compartmental methods: maximum observed plasma concentration (Cmax) (ng/mL), time at which maximum observed plasma concentration (tmax) (h), area under the plasma concentration-time curve AUC(0-24h) (ng/mL*h) and AUC(0-∞) (ng/mL*h), and apparent terminal phase half-life (t1/2) (h). Blood sampling was performed for urolithin A concentration measurements at the exact timepoints with an authorised time window described in the table below: At each time point indicated in the table, a 6 mL blood sample was drawn into K2-EDTA coated tube. The blood samples were gently inverted a few times for complete mixing with the anticoagulant. The exact time of sample collection was recorded on the eCRF. Within 30 minutes following blood collection, each blood sample was centrifuged at 1500 g for 10 minutes at 4° C. From the plasma concentration-time data, the following pharmacokinetic parameters were determined, as data permit using non-compartmental methods: maximum observed plasma concentration (Cmax), time at which maximum observed plasma concentration (tmax), area under the plasma concentration-time curve AUC(0-24h) and AUC(0-∞), and apparent terminal phase half-life (t1/2).

[2] = test system: genes associated with autophagy and mitophagy, mitochondrial biogenesis and dynamics, and fatty acid oxidation in skeletal muscle biopsies; experiment: rtPCR analysis of gene expression levels in skeletal muscle biopsies
Experimental: Muscle biopsies were collected before the meal from the vastus lateralis muscle of the right leg in order to perform ex vivo measurements. Muscle biopsies were collected on Day −1 and Day 28 at pre-dose under fasted state using the Bergström biopsy needle technique. The minimal amount of each muscle tissue sample was approximately 50 mg. One third of the tissue was used for gene expression (≈50 mg), and was further divided into two equal portions: one portion for RNA analysis (≈25 mg) and one portion for DNA analysis (≈25 mg), both in a Safe-lock Tubes 2.0 ml, Eppendorf (part no. 0030.120.094). Muscle tissue was snap frozen using liquid nitrogen immediately after collection and further, long term storage will be in a −80° C. freezer. The mRNA was analysed by microarray. Quantification of mtDNA over nuclear DNA provided another measure of mitochondrial abundance. The shipment was done in dry ice by specialized carrier. Temperatures were monitored using data logger during all transport. The method used has been validated according to good clinical laboratory practices (GCLP) and ICH guideline Q2(R1) (Validation of analytical procedures) by the corresponding service provider. Every sample was analysed in at least technical duplicates for housekeeping and target genes. A Ct value (threshold cycle), corresponding to the cycle at which the fluorescence signal reaches the amplification phase, was determined for every technical replicate and gene. The method of the 2^−ΔΔCt (Livak, K., J., and Schmittgen, T. D., Methods, 2001) was then applied to determine the relative expression of each target gene. rtPCR analysis was carried out on skeletal muscle biopsies of human subjects administered urolithin A or placebo daily for 28 days to determine the expression levels of specific genes associated with autophagy and mitophagy (LAMP2, ULK1, PIK3C3, MAP1LC3B, SQSTM1, PARK2), mitochondrial biogenesis and dynamics (SIRT1, PPARGC1A, PPARA, ESRRA, MFN1, MFN2, OPA1), and fatty acid oxidation (CPT1B, FABP3). FIG. 6 provides bar graphs showing the fold-change in gene expression levels from day −1 to day 28 for each gene for patients administered 250 mg/day or 1000 mg/day urolithin A, over placebo. The bar graphs represent gene expression data, expressed as a percentage of change over placebo, i.e. a value of 0% means that there is no difference between the dose and the placebo group while a value of 100% means that there is an increase in 100% over placebo value.

[3] = test system: mitochondrial content per cell in muscle tissue; experiment: Mitochondrial DNA copies per cell in muscle tissue; settings: 1000 mg per day for 28 days compared with placebo
Experimental: Muscle biopsies were collected on Day −1 and Day 28 at pre-dose under fasted state using the Bergström biopsy needle technique. The minimal amount of each muscle tissue sample was approximately 50 mg. One third of the tissue was used for gene expression (≈50 mg), and was further divided into two equal portions: one portion for RNA analysis (≈25 mg) and one portion for DNA analysis (≈25 mg), both in a Safe-lock Tubes 2.0 ml, Eppendorf (part no. 0030.120.094). Muscle tissue was snap frozen using liquid nitrogen immediately after collection and further, long term storage will be in a −80° C. freezer. The mRNA was analysed by microarray. Quantification of mtDNA over nuclear DNA provided another measure of mitochondrial abundance. The shipment was done in dry ice by specialized carrier. Temperatures were monitored using data logger during all transport. Increasing mitochondrial content per cell in muscle tissue was also observed following dosage of 1000 mg urolithin A per day for 28 days compared with placebo.

[4] = 1000 mg/day for 28 days, over placebo, P<0.05 Dunnett post-hoc

pharmacokinetic profile over the 28 day period (mean plasma concentrations 24 h after previous dose) ([1]; 500 mg daily dosage, days 0, 7, 14, 28, 29): stable
Cmax ([1]; both sexes, human, plasma, day 28, daily oral 1000 mg urolithin A for 28 days): 1.97 ng/mL
AUC ([1]; both sexes, human, plasma, day 28, daily oral 1000 mg urolithin A for 28 days, read-out: AUC out to 24 hours): 17.5 ng·h/mL
Structure (SMILES): O=c1oc2cc(O)ccc2c2ccc(O)cc12 [Urolithin A]
Ulk1 gene expression change ([2]; 1000 mg vs placebo, ANOVA p=0.0524, Dunnett p=0.0180): close to significant
Ppargc1a gene expression change ([2]; 1000 mg vs placebo, ANOVA p=0.1026, Dunnett p=0.0673): close to significant
Cpt1b gene expression change ([2]; 1000 mg vs placebo, ANOVA p=0.1362, Dunnett p=0.0805): close to significant
Park2 gene expression change ([2]; 1000 mg vs placebo, ANOVA p=0.2504, Dunnett p=0.1500): close to significant
expression of genes associated with autophagy, mitochondrial function, and/or fatty acid oxidation ([2]; 1000 mg/day for 28 days, day 28 vs day −1, over placebo): upregulation
FABP3 gene expression (fatty acid oxidation-related) [2, 4]: significant upregulation
LAMP2 gene expression (autophagy/mitophagy-related) [2, 4]: significant upregulation
mitochondrial content per cell in muscle tissue (mitochondrial DNA copies per cell) [3]: Increasing
